Patent US10105357B2, “Indication of antibiotic drugs for preparation of cancer inhibition pharmaceutical composition” (LAUNX BIOMEDICAL CO., LTD., priority 2014, dated 2018)
Structures can show the parent of a compound that is named as a salt. Where two headings read alike, the source gives them in different places.

What was measured:
Type in all cases: cell-based, human
[1] = tested on: A375 (Amelanotic Melanoma); test: Cell viability analysis, skin cancer A375; details: for viability at 10 µM: Homo sapiens, A-375, 72 h
[2] = tested on: HepG2 (Hepatocellular Carcinoma); test: Cell viability analysis, hepatic cancer HepG2; details: for viability at 10 µM: Homo sapiens, HepG2, 72 h
[3] = tested on: LoVo (Colorectal Adenocarcinoma); test: Cell viability analysis, colon cancer LoVo; details: for viability at 10 µM: Homo sapiens, LoVo, read-out: cell viability (survival rate), LoVo, drug 10 μM, 72 hours, WST-1, OD450 nm
[4] = tested on: TSGH-8301 (Urinary Bladder Carcinoma); test: Cell viability analysis, bladder cancer TSGH-8301; details: for viability at 10 µM: Homo sapiens
[5] = tested on: PC3 (p53−) (Prostate Adenocarcinoma); test: Cell viability analysis, prostate cancer PC3; details: for viability at 10 µM: Homo sapiens
[6] = tested on: HeLa (Cervix Adenocarcinoma); test: Cell viability analysis, cervical cancer HeLa; details: for viability at 10 µM: Homo sapiens, HeLa
[7] = tested on: AGS (Gastric Adenocarcinoma); test: Cell viability analysis, gastric cancer AGS; details: for viability at 10 µM: Homo sapiens
[8] = tested on: HL-60 (Acute Promyelocytic Leukemia); test: Cell viability analysis, leukemia HL-60; details: for viability at 10 µM: Homo sapiens, HL-60, 72 h
[9] = tested on: HI650 (Lung Adenocarcinoma); test: Cell viability analysis, lung cancer HI650; details: for viability at 10 µM: Homo sapiens, NCI-H1650, 72 h
[10] = tested on: A549 (Lung Adenocarcinoma); test: Cell viability analysis, lung cancer A549; details: for viability at 10 µM: Homo sapiens, A549, 72 h
[11] = tested on: MKN-45 (Gastric Adenocarcinoma); test: Cell viability analysis, gastric cancer MKN-45; details: for viability at 10 µM: Homo sapiens, MKN-45, 72 h
[12] = tested on: MCF7 (Mammary Gland, Adenocarcinoma); test: Cell viability analysis, breast cancer MCF7; details: for viability at 10 µM: Homo sapiens, MCF7, 72 h
[13] = read-out: cell viability (survival rate), A375, drug 10 μM, 72 hours, WST-1, OD450 nm
[14] = read-out: cell viability (survival rate), HepG2, drug 10 μM, 72 hours, WST-1, OD450 nm
[15] = 72 h, read-out: cell viability (survival rate), TSGH, drug 10 μM, 72 hours, WST-1, OD450 nm
[16] = 72 h, read-out: cell viability (survival rate), PC3, drug 10 μM, 72 hours, WST-1, OD450 nm
[17] = 72 h, read-out: cell viability (survival rate), HeLa, drug 10 μM, 72 hours, WST-1, OD450 nm
[18] = 72 h, read-out: cell viability (survival rate), AGS, drug 10 μM, 72 hours, WST-1, OD450 nm
[19] = read-out: cell viability (survival rate), HL-60, drug 10 μM, 72 hours, WST-1, OD450 nm
[20] = read-out: cell viability (survival rate), H1650, drug 10 μM, 72 hours, WST-1, OD450 nm
[21] = read-out: cell viability (survival rate), A549, drug 10 μM, 72 hours, WST-1, OD450 nm
[22] = read-out: cell viability (survival rate), MKN-45, drug 10 μM, 72 hours, WST-1, OD450 nm
[23] = read-out: cell viability (survival rate), MCF7, drug 10 μM, 72 hours, WST-1, OD450 nm
[24] = drug 10 μM, 72 hours, WST-1, OD450 nm, read-out: cell viability (survival rate), A375
[25] = drug 10 μM, 72 hours, WST-1, OD450 nm, read-out: cell viability (survival rate), HepG2
[26] = 72 h, drug 10 μM, 72 hours, WST-1, OD450 nm, read-out: cell viability (survival rate), TSGH
[27] = 72 h, drug 10 μM, 72 hours, WST-1, OD450 nm, read-out: cell viability (survival rate), PC3
[28] = 72 h, drug 10 μM, 72 hours, WST-1, OD450 nm, read-out: cell viability (survival rate), HeLa
[29] = 72 h, drug 10 μM, 72 hours, WST-1, OD450 nm, read-out: cell viability (survival rate), AGS
[30] = drug 10 μM, 72 hours, WST-1, OD450 nm, read-out: cell viability (survival rate), HL-60
[31] = drug 10 μM, 72 hours, WST-1, OD450 nm, read-out: cell viability (survival rate), H1650
[32] = drug 10 μM, 72 hours, WST-1, OD450 nm, read-out: cell viability (survival rate), A549
[33] = drug 10 μM, 72 hours, WST-1, OD450 nm, read-out: cell viability (survival rate), MKN-45
[34] = drug 10 μM, 72 hours, WST-1, OD450 nm, read-out: cell viability (survival rate), MCF7
[35] = drug 10 μM, 72 hours, WST-1, OD450 nm

Structure (SMILES): Cc1ccccc1C(OCCN(C)C)c1ccccc1 (stereo not drawn) [Orphenadrine citrate (Norflex), Orphenadrine citrate]
- viability at 10 µM [1, 13]: 89.2%
- viability at 10 µM [2, 14]: 97.8%
- viability at 10 µM ([3]; 72 h): 45.6%
- viability at 10 µM [4, 15]: 53.4%
- viability at 10 µM [5, 16]: 41.6%
- viability at 10 µM [6, 17]: 67.9%
- viability at 10 µM [7, 18]: 82.9%
- viability at 10 µM [8, 19]: 92.9%
- viability at 10 µM [9, 20]: 99.6%
- viability at 10 µM [10, 21]: 21.8%
- viability at 10 µM [11, 22]: 102%
- viability at 10 µM [12, 23]: 35.9%

Structure (SMILES): CN(C)[C@@H]1C(O)=C(C(N)=O)C(=O)[C@@]2(O)C(O)=C3C(=O)c4c(O)cccc4[C@@](C)(O)[C@H]3[C@H](O)[C@@H]12 [Oxytetracycline (Terramycin), Oxytetracycline]
- cell viability (survival rate), A375 ([1]; human, 72 h, 10 µM): 51.2
- cell viability (survival rate), HepG2 ([2]; human, 72 h, 10 µM): 88.4
- cell viability (survival rate), LoVo ([3]; human, 72 h, 10 µM): 86.6
- cell viability (survival rate), TSGH ([4]; human, 72 h, 10 µM): 73.8
- cell viability (survival rate), PC3 ([5]; human, 72 h, 10 µM): 70.8
- cell viability (survival rate), HeLa ([6]; human, 72 h, 10 µM): 51.2
- cell viability (survival rate), AGS ([7]; human, 72 h, 10 µM): 61.9
- cell viability (survival rate), HL-60 ([8]; human, 72 h, 10 µM): 97.9
- cell viability (survival rate), H1650 ([9]; human, 72 h, 10 µM): 70.1
- cell viability (survival rate), A549 ([10]; human, 72 h, 10 µM): 42.3
- cell viability (survival rate), MKN-45 ([11]; human, 72 h, 10 µM): 56.7
- cell viability (survival rate), MCF7 ([12]; human, 72 h, 10 µM): 38.9

Structure (SMILES): NC(=O)c1cnccn1 [Pyrazinamide]
- viability at 10 µM [1, 24]: 58.6%
- viability at 10 µM [2, 25]: 88.1%
- viability at 10 µM ([3]; 72 h): 56.9%
- viability at 10 µM [4, 26]: 88.3%
- viability at 10 µM [5, 27]: 100%
- viability at 10 µM [6, 28]: 54.3%
- viability at 10 µM [7, 29]: 74.9%
- viability at 10 µM [8, 30]: 106%
- viability at 10 µM [9, 31]: 79.1%
- viability at 10 µM [10, 32]: 33.9%
- viability at 10 µM [11, 33]: 53.6%
- viability at 10 µM [12, 34]: 40.9%

Structure (SMILES): CN(CCOc1ccc(CC2SC(=O)NC2=O)cc1)c1ccccn1 (stereo not drawn) [Rosiglitazone maleate]
- viability at 10 µM [1, 24]: 70.3%
- viability at 10 µM [2, 25]: 95.1%
- viability at 10 µM ([3]; 72 h): 93.5%
- viability at 10 µM [4, 26]: 85.2%
- viability at 10 µM [5, 27]: 121%
- viability at 10 µM [6, 28]: 83.3%
- viability at 10 µM [7, 29]: 113%
- viability at 10 µM [8, 30]: 109%
- viability at 10 µM [9, 31]: 87.7%
- viability at 10 µM [10, 32]: 79.1%
- viability at 10 µM [11, 33]: 73.7%
- viability at 10 µM [12, 34]: 114%

Structure (SMILES): Clc1ccc(CSC(Cn2ccnc2)c2ccc(Cl)cc2Cl)cc1 (stereo not drawn) [Sulconazole Nitrate]
- viability at 10 µM [1, 13]: 44.9%
- viability at 10 µM [2, 14]: 88.2%
- viability at 10 µM ([3]; 72 h): 73.6%
- viability at 10 µM [4, 15]: 55%
- viability at 10 µM [5, 16]: 65.7%
- viability at 10 µM [6, 17]: 62.1%
- viability at 10 µM [7, 18]: 83.1%
- viability at 10 µM [8, 19]: 64.1%
- viability at 10 µM [9, 20]: 63.4%
- viability at 10 µM [10, 21]: 50.7%
- viability at 10 µM [11, 22]: 53.2%
- viability at 10 µM [12, 23]: 44.4%

Structure (SMILES): CN(C/C=C/C#CC(C)(C)C)Cc1cccc2ccccc12 [Terbinafine (Lamisil, Terbinex), Terbinafine]
- viability at 10 µM [1, 24]: 99.7%
- viability at 10 µM [2, 25]: 98.3%
- viability at 10 µM ([3]; 72 h): 94%
- viability at 10 µM [4, 26]: 109%
- viability at 10 µM [5, 27]: 140%
- viability at 10 µM [6, 28]: 65.2%
- viability at 10 µM [7, 29]: 137%
- viability at 10 µM [8, 30]: 95.2%
- viability at 10 µM [9, 31]: 104%
- viability at 10 µM [10, 32]: 115%
- viability at 10 µM [11, 33]: 143%
- viability at 10 µM [12, 34]: 104%

Structure (SMILES): CN(C/C=C/C#CC(C)(C)C)Cc1cccc2ccccc12.Cl [Terbinafine HCl (Lamisil)]
- cell viability (survival rate), A375 [1, 35]: 92.5
- cell viability (survival rate), HepG2 [2, 35]: 91.1
- cell viability (survival rate), LoVo [3, 35]: 71.4
- cell viability (survival rate), TSGH [4, 35]: 50.6
- cell viability (survival rate), PC3 [5, 35]: 70.8
- cell viability (survival rate), HeLa [6, 35]: 75.4
- cell viability (survival rate), AGS [7, 35]: 90.6
- cell viability (survival rate), HL-60 [8, 35]: 86.5
- cell viability (survival rate), H1650 [9, 35]: 40.6
- cell viability (survival rate), A549 [10, 35]: 52.3
- cell viability (survival rate), MKN-45 [11, 35]: 81.8
- cell viability (survival rate), MCF7 [12, 35]: 67.7

Structure (SMILES): CC(=O)[C@@]1(O)CC[C@H]2[C@@H]3CCC4=CC(=O)CCC4=C3[C@@H](c3ccc(N(C)C)cc3)C[C@@]21C [Ulipristal]
- viability at 10 µM [1, 24]: 48.2%
- viability at 10 µM [2, 25]: 69%
- viability at 10 µM ([3]; 72 h): 67.8%
- viability at 10 µM [4, 26]: 55.8%
- viability at 10 µM [5, 27]: 49.3%
- viability at 10 µM [6, 28]: 72.4%
- viability at 10 µM [7, 29]: 55.4%
- viability at 10 µM [8, 30]: 93.8%
- viability at 10 µM [9, 31]: 40.3%
- viability at 10 µM [10, 32]: 59.9%
- viability at 10 µM [11, 33]: 36.1%
- viability at 10 µM [12, 34]: 65.4%
